# Tests used:
# [1] = test system: C. parapsilosis ATCC 22019 (strain J); assay: MIC determination (broth microdilution); assay type: cell-based; conditions: strain J = C. parapsilosis ATCC 22019; MIC-0; 48 h; listed as printed beside letter K
# [2] = test system: C. neoformans CN2 (strain O); assay: MIC determination (broth microdilution); assay type: cell-based, Cryptococcus neoformans; conditions: MIC-0, 72 h at 35° C.
# [3] = test system: C. auris AR Bank # 0384 (strain K); assay: MIC determination (broth microdilution); assay type: cell-based, Candida auris; conditions: strain K = C. auris AR Bank # 0384; MIC-0; 48 h (CAS read at 24 h); Table 1; also in Table 2
# [4] = test system: C. albicans ATCC MYA-1003(R) (strain A); assay type: cell-based, Candida albicans; conditions: strain A = C. albicans ATCC MYA-1003(R); MIC-0; 48 h at 35° C.
# [5] = test system: A. flavus ATCC MYA-3631 (strain S); assay: MIC determination (broth microdilution); assay type: cell-based, Aspergillus flavus; conditions: strain S = A. flavus ATCC MYA-3631; MIC-0; 72 h at 35° C.
# [6] = test system: C. krusei ATCC 6258 (strain I); assay: MIC determination (broth microdilution); assay type: cell-based; conditions: strain I = C. krusei ATCC 6258; MIC-0; 48 h; listed as split over r16 and r17 (r17 printed beside letter J)
# [7] = test system: C. albicans ATCC 90819(R) (strain G); assay type: cell-based, Candida albicans; conditions: strain G = C. albicans ATCC 90819(R); MIC-0; 48 h; listed as printed without letter, below G
# [8] = test system: C. albicans ATCC 10231(R) (strain B); assay type: cell-based, Candida albicans
# [9] = test system: C. albicans ATCC MYA-2310(S) (strain D); assay: MIC determination (broth microdilution); assay type: cell-based, Candida albicans; conditions: strain D = C. albicans ATCC MYA-2310(S); MIC-0; 48 h; listed as printed beside letter E
# [10] = test system: C. albicans ATCC 64124(R) (strain F); assay type: cell-based, Candida albicans; conditions: strain F = C. albicans ATCC 64124(R); MIC-0; 48 h; listed as printed beside letter G
# [11] = test system: A. nidulans ATCC 38163 (strain Q); assay: MIC determination (broth microdilution); assay type: cell-based, Aspergillus nidulans; conditions: strain Q = A. nidulans ATCC 38163; MIC-0; 72 h at 35° C.
# [12] = test system: C. auris AR Bank # 0390 (strain L); assay: MIC determination (broth microdilution); assay type: cell-based, Candida auris; conditions: strain L = C. auris AR Bank # 0390; MIC-0; 48 h (CAS read at 24 h); Table 1 row printed without letter, below L; also in Table 2
# [13] = test system: A. terreus ATCC MYA-3633 (strain R); assay type: cell-based, Aspergillus terreus; conditions: strain R = A. terreus ATCC MYA-3633; MIC-0; 72 h at 35° C.
# [14] = test system: F. graminearum 053 (strain T); assay type: cell-based, Fusarium graminearum; conditions: strain T = F. graminearum 053; MIC-0; room temperature, 5 days
# [15] = test system: fungal strains (Candida spp., Cryptococcus spp., Aspergillus spp., Fusarium spp.); assay: MIC determination, summary statements over the strain panel; assay type: cell-based; conditions: for overall assessment as antifungals: panel of twenty fungal strains (Table 1)
# [16] = test system: C. glabrata ATCC 2001 (strain H); assay: MIC determination (broth microdilution); assay type: cell-based, Candida glabrata; conditions: strain H = C. glabrata ATCC 2001; MIC-0; 48 h at 35° C.
# [17] = test system: C. neoformans CN3 (strain P); assay: MIC determination (broth microdilution); assay type: cell-based, Cryptococcus neoformans; conditions: MIC-0, 72 h at 35° C.
# [18] = test system: C. albicans ATCC MYA-1237(R) (strain C); assay type: cell-based, Candida albicans; conditions: strain C = C. albicans ATCC MYA-1237(R); MIC-0; 48 h; listed as printed beside letter D
# [19] = test system: C. albicans ATCC MYA-2876(S) (strain E); assay: MIC determination (broth microdilution); assay type: cell-based, Candida albicans; conditions: strain E = C. albicans ATCC MYA-2876(S); MIC-0; 48 h; listed as printed beside letter F
# [20] = test system: C. neoformans ATCC MYA-85 (strain M); assay: MIC determination (broth microdilution); assay type: cell-based, Cryptococcus neoformans; conditions: strain M = C. neoformans ATCC MYA-85; MIC-0; 72 h at 35° C.
# [21] = test system: C. neoformans CN1 (strain N); assay: MIC determination (broth microdilution); assay type: cell-based, Cryptococcus neoformans; conditions: MIC-0, 72 h at 35° C.
# [22] = Aspergillus spp., Fusarium spp. and most of the non-albicans Candida strains
compound,measurement,setting,value
"[Cl][Au-][P+](c1ccccc1)(c1ccccc1)c1ccccc1[P+]([Au-][Cl])(c1ccccc1)c1ccccc1 [Compound 1, [1,2-bis(diphenylphosphino)benzene]digold(I)]",MIC,[1],15.6 µg/mL
same,MIC (in parentheses),[1],17.1 µM
same,MIC,[2],3.9 µg/mL
same,MIC (in parentheses),[2],4.3 µM
same,MIC,[3],> 31.3 µg/mL
same,MIC (in parentheses),[3],> 34.3 µM
same,MIC,[4],3.9 µg/mL
same,MIC (in parentheses),[4],4.3 µM
same,MIC,[5],> 31.3 µg/mL
same,MIC (in parentheses),[5],> 34.3 µM
same,MIC,[6],15.6 µg/mL
same,MIC (in parentheses),[6],17.1 µM
same,MIC,[7],7.8 µg/mL
same,MIC (in parentheses),[7],8.6 µM
same,MIC,[8],15.6 (17.1) μg/mL
same,MIC (in parentheses),[8],15.6 (17.1) μM
same,MIC,[9],7.8 µg/mL
same,MIC (in parentheses),[9],8.6 µM
same,MIC,[10],7.8 µg/mL
same,MIC (in parentheses),[10],8.6 µM
same,MIC,[11],> 31.3 µg/mL
same,MIC (in parentheses),[11],> 34.3 µM
same,MIC,[12],> 31.3 µg/mL
same,MIC (in parentheses),[12],> 34.3 µM
same,MIC,[13],> 31.3 µg/mL
same,MIC (in parentheses),[13],> 34.3 µM
same,MIC,[14],> 31.3 µg/mL
same,MIC (in parentheses),[14],> 34.3 µM
same,antifungal activity,[15]; [22],inactive
same,overall assessment as antifungals,[15],poor antifungals
same,MIC,[16],7.8 µg/mL
same,MIC (in parentheses),[16],8.6 µM
same,MIC,[17],15.6 µg/mL
same,MIC (in parentheses),[17],17.1 µM
same,MIC,[18],0.49 µg/mL
same,MIC (in parentheses),[18],5.4 µM
same,MIC,[19],7.8 µg/mL
same,MIC (in parentheses),[19],8.6 µM
same,MIC,[20],0.98 µg/mL
same,MIC (in parentheses),[20],1.1 µM
same,MIC,[21],3.9 µg/mL
same,MIC (in parentheses),[21],4.3 µM
"[Cl-].c1ccc([P+]2(c3ccccc3)c3ccccc3[P+](c3ccccc3)(c3ccccc3)[Au-3]23[P+](c2ccccc2)(c2ccccc2)c2ccccc2[P+]3(c2ccccc2)c2ccccc2)cc1 [Compound 2, bis-[1,2-bis(diphenylphosphino)benzene]gold(1)]",MIC,[1],7.8 µg/mL
same,MIC (in parentheses),[1],6.9 µM
same,MIC,[2],3.9 µg/mL
same,MIC (in parentheses),[2],3.5 µM
same,MIC,[3],> 31.3 µg/mL
same,MIC (in parentheses),[3],> 27.8 µM
same,MIC,[4],15.6 µg/mL
same,MIC (in parentheses),[4],13.9 µM
same,MIC,[5],> 31.3 µg/mL
same,MIC (in parentheses),[5],> 27.8 µM
same,MIC,[6],15.6 µg/mL
same,MIC (in parentheses),[6],13.9 µM
same,MIC,[7],7.8 µg/mL
same,MIC (in parentheses),[7],6.9 µM
same,MIC,[8],15.6 (13.9) μg/mL
same,MIC (in parentheses),[8],15.6 (13.9) μM
same,MIC,[9],7.8 µg/mL
same,MIC (in parentheses),[9],6.9 µM
same,MIC,[10],7.8 µg/mL
same,MIC (in parentheses),[10],6.9 µM
same,MIC,[11],> 31.3 µg/mL
same,MIC (in parentheses),[11],> 27.8 µM
same,MIC,[12],> 31.3 µg/mL
same,MIC (in parentheses),[12],> 27.8 µM
same,MIC,[13],> 31.3 µg/mL
same,MIC (in parentheses),[13],> 27.8 µM
same,MIC,[14],31.3 µg/mL
same,MIC (in parentheses),[14],27.8 µM
same,antifungal activity,[15]; [22],inactive
same,overall assessment as antifungals,[15],poor antifungals
same,MIC,[16],7.8 µg/mL
same,MIC (in parentheses),[16],6.9 µM
same,MIC,[17],3.9 µg/mL
same,MIC (in parentheses),[17],3.5 µM
same,MIC,[18],15.6 µg/mL
same,MIC (in parentheses),[18],13.9 µM
same,MIC,[19],7.8 µg/mL
same,MIC (in parentheses),[19],6.9 µM
same,MIC,[20],3.9 µg/mL
same,MIC (in parentheses),[20],3.5 µM
same,MIC,[21],3.9 µg/mL
same,MIC (in parentheses),[21],3.5 µM
"CC1CCC(C)[P+]1([Au-][Cl])c1ccccc1[P+]1([Au-][Cl])C(C)CCC1C [Compound 3, [1,2-bis[(2S,5S)-2,5-dimethylphospholano]benzene]digold(1)]",MIC,[1],> 31.3 µg/mL
same,MIC (in parentheses),[1],> 40.6 µM
same,MIC,[2],31.3 µg/mL
same,MIC (in parentheses),[2],40.6 µM
same,MIC,[3],> 31.3 µg/mL
same,MIC (in parentheses),[3],> 40.6 µM
same,MIC,[4],31.3 µg/mL
same,MIC (in parentheses),[4],40.6 µM
same,MIC,[5],> 31.3 µg/mL
same,MIC (in parentheses),[5],> 40.6 µM
same,MIC,[6],> 31.3 µg/mL
same,MIC (in parentheses),[6],> 40.6 µM
same,MIC,[7],31.3 µg/mL
same,MIC (in parentheses),[7],40.6 µM
same,MIC,[8],>31.3 (40.6) μg/mL
same,MIC (in parentheses),[8],>31.3 (40.6) μM
same,MIC,[9],31.3 µg/mL
same,MIC (in parentheses),[9],40.6 µM
same,MIC,[10],31.3 µg/mL
same,MIC (in parentheses),[10],40.6 µM
same,MIC,[11],> 31.3 µg/mL
same,MIC (in parentheses),[11],> 40.6 µM
same,MIC,[12],> 31.3 µg/mL
same,MIC (in parentheses),[12],> 40.6 µM
same,MIC,[13],> 31.3 µg/mL
same,MIC (in parentheses),[13],> 40.6 µM
same,MIC,[14],> 31.3 µg/mL
same,MIC (in parentheses),[14],> 40.6 µM
same,antifungal activity,"[15]; all fungal strains tested, except C. neoformans (strain M)",completely inactive
same,overall assessment as antifungals,[15],poor antifungals
same,MIC,[16],> 31.3 µg/mL
same,MIC (in parentheses),[16],> 40.6 µM
same,MIC,[17],> 31.3 µg/mL
same,MIC (in parentheses),[17],> 40.6 µM
same,MIC,[18],> 31.3 µg/mL
same,MIC (in parentheses),[18],40.6 µM
same,MIC,[19],31.3 µg/mL
same,MIC (in parentheses),[19],40.6 µM
same,MIC,[20],1.95 µg/mL
same,MIC (in parentheses),[20],2.5 µM
same,MIC,[21],> 31.3 µg/mL
same,MIC (in parentheses),[21],> 40.6 µM
"CC1CCC(C)[P+]1([Au-][Cl])c1ccccc1[P+]1([Au-][Cl])C(C)CCC1C [Compound 5, [1,2-bis[(2R,5R)-2,5-dimethylphospholano]benzene]digold(1)]",MIC,[1],15.6 µg/mL
same,MIC (in parentheses),[1],20.2 µM
same,MIC,[2],7.8 µg/mL
same,MIC (in parentheses),[2],10.1 µM
same,MIC,[3],> 31.3 µg/mL
same,MIC (in parentheses),[3],> 40.6 µM
same,MIC,[4],3.9 µg/mL
same,MIC (in parentheses),[4],5.1 µM
same,MIC,[5],> 31.3 µg/mL
same,MIC (in parentheses),[5],> 40.6 µM
same,MIC,[6],31.3 µg/mL
same,MIC (in parentheses),[6],40.6 µM
same,MIC,[7],7.8 µg/mL
same,MIC (in parentheses),[7],10.1 µM
same,MIC,[8],31.3 (40.6) μg/mL
same,MIC (in parentheses),[8],31.3 (40.6) μM
same,MIC,[9],7.8 µg/mL
same,MIC (in parentheses),[9],10.1 µM
same,MIC,[10],15.6 µg/mL
same,MIC (in parentheses),[10],20.2 µM
same,MIC,[11],> 31.3 µg/mL
same,MIC (in parentheses),[11],> 40.6 µM
same,MIC,[12],> 31.3 µg/mL
same,MIC (in parentheses),[12],> 40.6 µM
same,MIC,[13],> 31.3 µg/mL
same,MIC (in parentheses),[13],> 40.6 µM
same,MIC,[14],> 31.3 µg/mL
same,MIC (in parentheses),[14],> 40.6 µM
same,antifungal activity,[15]; [22],inactive
same,overall assessment as antifungals,[15],poor antifungals
same,MIC,[16],15.6 µg/mL
same,MIC (in parentheses),[16],20.2 µM
same,MIC,[17],7.8 µg/mL
same,MIC (in parentheses),[17],10.1 µM
same,MIC,[18],15.6 µg/mL
same,MIC (in parentheses),[18],20.2 µM
same,MIC,[19],15.6 µg/mL
same,MIC (in parentheses),[19],20.2 µM
same,MIC,[20],0.12 µg/mL
same,MIC (in parentheses),[20],0.2 µM
same,MIC,[21],15.6 µg/mL
same,MIC (in parentheses),[21],20.2 µM

# From patent US11564394B2, “Distorted gold (I)-phosphine complexes and methods for use as antifungal agents” (University of Kentucky Research Foundation, priority 2019, dated 2023)
